Tests used:
Type in all cases: cell-based
[1] = tested on: rare codon in EGFP reporter, HEK293T cells; test: LC-MS recoding efficiency of rare codons in EGFP reporter; conditions: TCG at position 151 of EGFP; 12× tRNA; serine/glycine-free medium; 500 μM unnatural amino acid
Experimental: The recoding translation system and the rare codon-bearing POI were co-transfected into HEK293T cells. Then, two methods were used to calculate the ncAA recoding rate: 1) LC-MS analysis: the protein of the POI mixture, including the fraction incorporated with ncAA and the fraction with NAA at rare codons, was purified by Ni2+-NTA beads and subjected to LC-MS analysis. The ncAA recoding rate was determined by the intensity of two fractions quantified by LC-MS. 2) TCO-PEG5000 mass tag labeling analysis: this method was suitable for quantifying the TetBu recoding rate in this work. When the protein mixture was incubated with TCO-PEG5000 mass tag, the protein incorporated with TetBu would be labeled by this mass tag and migrated much slower in SDS-PAGE.
When the recoding system (TetRS/PylTyyy) is co-expressed with a target protein carrying the recoding codon in HEK293T, the recoding codon can be translated into a natural amino acid by endogenous tRNA (Dec-tRNA), or recoding into TetBu by the engineered tRNA (Rec-tRNA), producing a mixture of protein byproducts (with a single-site mutation) and the target protein containing TetBu. Based on this, two methods were established to assess sense codon recoding efficiency: a) Liquid chromatography-mass spectrometry (LC-MS) for differentiates proteins based on molecular weight differences, and b) TCO-PEG5000 macromolecular label target proteins containing TetBu, which increases their molecular weight by 5 kDa. The shift in protein bands is detected via immunoblotting (FIG. 2).
(1) Transfection: Plasmids encoding the TetBu/PylTyyy recoding system (where xxx represents different codons and yyy represents different anticodons) were co-transfected with the plasmid mCherry-T2A-EGFP^N149XXX-6×His at a 1:1 (g:g) ratio. For a 10 cm dish, the total transfection mixture contained 20 μg DNA+[…] Lipofectamine 2000+2 mL Opti-MEM.
(2) Protein expression and purification: After 6 hours, the medium was replaced with fresh DMEM containing 200 μM TetBu for 40 hours to induce protein expression. Cells were lysed in 1 mL Modified RIPA Buffer, and the supernatant was purified using Ni-NTA beads.
(3) LC-MS analysis of recoding efficiency:Using a Waters Xevo G2-XS TOF Mass Spectrometer, the recoding efficiency of rare codons (CTA, GTA, CGT, CCG, GCG, ACG, and TCG) at the EGFP149 site was evaluated.
(2) Cell transfection and protein expression purification: HEK293T cells were seeded in 10 cm culture dishes and transfected at 60-70% confluency. For each transfection, […] of plasmid carrying mCherry-T2A-EGFPY151TCG-6×His was co-transfected with one of the following recoding system plasmids: chPhe_AcFRS/12×(U6-chPheTCGA), EcTyr_OmeYRS/12×(U6-EcTyrTCGA), or EcLeu_OmeYRS/12×(U6-EcLeuTCGA). After 6 hours, the medium was replaced with serine/glycine-free DMEM/F12 containing 500 μM of the respective unnatural amino acid. Following protein expression and purification, LC-MS was used to determine TCG recoding efficiency at position 151 of EGFP. Detailed transfection and purification protocols following section 2.2.1.2, with cell culture conditions in serine-free medium as described in Example 2.

[2] = tested on: FLucY255ACG/K529TCG mutant; test: FLuc dual caged UAA decaging luminescence assay; conditions: dual incorporation of ONBY with TCOK/PABK
Description: To established a method for orthogonal activation control of proteins, two caged UAAs are incorporated site-specifically into the active pocket or adjacent sites of target proteins through the dual rare codon recoding strategy, wherein steric hindrance leads to the protein inactivation, followed by protein activation through photochemical or chemical decaging strategies. The TCG/ACG dual recoding system decodes TCG/ACG sites as serine/threonine in the absence of UAAs. During the screening of FLuc, the K529 and Y255 site are identified with minimal background upon serine incorporation and threonine incorporation respectively, which were subsequently used for dual caged UAA incorporation. Using the FLucY255ACG/K529TCG mutant as an example, the TCG recoding system decoding ONBY, the ACG recoding system decoding TCOK/PABK, and reporter genes were co-transfected into cells, followed by luminescence assay to evaluate protein activation.

EGFP F84TCG mutant = test: EGFP F84TCG fluorescence activation by UAA
Description: Using EGFP as an example, this example describes a general method for screening recoding sites and UAA types in protein activation regulated by UAA incorporation. In the absence of UAAs, the TCG recoding system decodes the TCG codon as serine (Ser). To maximize disruption towards protein function, we screened phenylalanine (Phe), tyrosine (Tyr), and tryptophan (Trp)—amino acids with the greatest structural divergence from Ser for potential incorporation. Following identification of Ser-substituted inactivation sites, we screened UAAs capable of rescuing protein activity, yielding optimal recoding system/UAA pairs (a-b of FIG. 22). […] This strategy was successfully extended to diverse proteins including fluorescent proteins (e.g., mCherry), enzymes (e.g., luciferase, kinases, peroxidases), and translation regulators (e.g., initiation factors, post-translational modification readers).

[3] = tested on: TCG codon, mammalian cells; test: TCG codon recoding efficiency of all amino acids (Table 1); conditions: TCG codon recoding of the unnatural amino acid with the aaRS and mutation of the same table line
Description: Specific details are shown in Table 1 below, where “wt” represents the wild-type aminoacyl-tRNA synthetase, “mutation sites” indicate the positions and types of mutations related to specific unnatural amino acid binding on the wild-type aminoacyl-tRNA synthetase, and “unnatural amino acid” represents the unnatural amino acid corresponding to the mutated aminoacyl-tRNA synthetase. In the unnatural amino acid encoding efficiency, “+” indicates a recoding efficiency greater than 40%, “++” greater than 60%, and “+++” greater than 80%.
Accordingly, this application compiles all amino acids reported in the literature that are recognized by orthogonal aminoacyl-tRNA synthetases in mammalian systems and evaluates their recoding efficiency using the TCG codon as an example.

Compound | Recoding rate (%) ([3]; class symbols) | Recoding rate (%) ([3]; numeric values) | also measured
CC(=O)NCCCC[C@H](N)C(=O)O [AcK] |  |  | recoding efficiency [1]: 78%
CC(C)(C)OC(=O)NCCCC[C@H](N)C(=O)O [BocK, ε-N-tert-butyloxycarbonyllysine] |  |  | recoding efficiency [1]: 82%
CCCC(=O)NCCCC[C@H](N)C(=O)O [Kbu] |  |  | recoding efficiency [1]: 74%
C/C=C/C(=O)NCCCC[C@H](N)C(=O)O [Kcr, ε-N-crotonyl-lysine] |  |  | recoding efficiency [1]: 84%
CCC(=O)NCCCC[C@H](N)C(=O)O [Kpr] |  |  | recoding efficiency [1]: 79%
N[C@@H](Cc1ccc(OCc2ccccc2[N+](=O)[O-])cc1)C(=O)O [ONBY] |  |  | FLuc activity in the presence of both caged UAAs, before decaging [2]: nearly complete inactivation
COc1ccc(C[C@H](N)C(=O)O)cc1 [OmeY, O-methyl-tyrosine] |  |  | concentration with detectable EGFP activation (EGFP F84TCG mutant): 0.00001 mM; time to fluorescence activation after UAA delivery (EGFP F84TCG mutant): ≤ 1 min; fluorescence enhancement upon UAA addition versus no UAA (EGFP F84TCG mutant; TCG-recoding system decoding OmeY): > 100 fold
[N-]=[N+]=Nc1ccc(COC(=O)NCCCC[C@H](N)C(=O)O)cc1 [PABK] |  |  | FLuc activity in the presence of both caged UAAs, before decaging [2]: nearly complete inactivation
N[C@@H](CCCCNC(=O)OC1/C=C/CCCCC1)C(=O)O (some centres unmarked) [TCOK] |  |  | FLuc activity in the presence of both caged UAAs, before decaging [2]: nearly complete inactivation
CCCCSC[C@H](N)C(=O)O [compound 380] | ++ (“++” greater than 60%) |  | 
CCCCCSC[C@H](N)C(=O)O [compound 381] |  | 83% | 
CCCCCCSC[C@H](N)C(=O)O [compound 382] |  | 87% | 
CCCCCCCSC[C@H](N)C(=O)O [compound 383] |  | 74% | 
CCCCCCCCSC[C@H](N)C(=O)O [compound 384] | ++ (“++” greater than 60%) |  | 
C#CCCCSC[C@H](N)C(=O)O [compound 385] | ++ (“++” greater than 60%) |  | 
C#CCCCCSC[C@H](N)C(=O)O [compound 386] |  | 77% | 
[N-]=[N+]=NCCCSC[C@H](N)C(=O)O [compound 387] | ++ (“++” greater than 60%) |  | 
[N-]=[N+]=NCCCCSC[C@H](N)C(=O)O [compound 388] | ++ (“++” greater than 60%) |  | 
[N-]=[N+]=NCCCCCSC[C@H](N)C(=O)O [compound 389] | ++ (“++” greater than 60%) |  | 
CN(C)c1cccc2c(S(=O)(=O)NC[C@H](N)C(=O)O)cccc12 [compound 390] |  | 73% | 
CC(=O)c1ccc2cc(NC[C@H](N)C(=O)O)ccc2c1 [compound 391] | ++ (“++” greater than 60%) |  | 
N[C@@H](CNc1ccc2ccccc2c1)C(=O)O [compound 392] | ++ (“++” greater than 60%) |  | 
CCSCCCC[C@H](N)C(=O)O [compound 393] | ++ (“++” greater than 60%) |  | 
N[C@@H](CCCS)C(=O)O [compound 394] | ++ (“++” greater than 60%) |  | 

Compound | Recoding rate (%) ([3]; class symbols) | Recoding rate (%) ([3]; numeric values) | also measured
N[C@@H](CCCCS)C(=O)O [compound 395] | ++ (“++” greater than 60%) |  | 
CCCCCC[C@H](N)C(=O)O [compound 396] |  | 88% | 
CCCCCCC[C@H](N)C(=O)O [compound 397] |  | 92% | 
CCCCCCCC[C@H](N)C(=O)O [compound 398] |  | 85% | 
COc1ccc(C[C@H](N)C(=O)O)cc1 [compound 400] |  | 92% | 
N[C@@H](CSCc1ccccc1[N+](=O)[O-])C(=O)O [compound 401] | +++ (“+++” greater than 80%) |  | 
CCOc1cc(COC[C@H](N)C(=O)O)c([N+](=O)[O-])cc1OCC [compound 402] | +++ (“+++” greater than 80%) |  | 
CCOc1cc(CSC[C@H](N)C(=O)O)c([N+](=O)[O-])cc1OCC [compound 403] |  | 84% | 
CCOc1cc(C[Se]CC(N)C(=O)O)c([N+](=O)[O-])cc1OCC (centres unmarked) [compound 404] |  | 59% | 
C=CC[S+]([O-])C[C@@H](N)C(=O)O (some centres unmarked) [compound 405] | +++ (“+++” greater than 80%) |  | 
C=CCCC[C@H](N)C(=O)O [compound 406] | +++ (“+++” greater than 80%) |  | 
C=CCCCC[C@H](N)C(=O)O [compound 407] |  | 81% | 
CC=CCOC[C@H](N)C(=O)O [compound 408] | +++ (“+++” greater than 80%) |  | 
C=CCCCOC[C@H](N)C(=O)O [compound 409] | +++ (“+++” greater than 80%) |  | 
CC(=O)N(C)CCCC[C@H](N)C(=O)O [compound 410] |  | 83% | 
N[C@@H](Cc1c[nH]c2ccc(O)cc12)C(=O)O [compound 411] |  | 75% | 
Cc1ccc2[nH]cc(C[C@H](N)C(=O)O)c2c1 [compound 412] |  | 37% | 
COc1ccc2[nH]cc(C[C@H](N)C(=O)O)c2c1 [compound 413] |  | 85% | 
N[C@@H](Cc1c[nH]c2ccc(Br)cc12)C(=O)O [compound 414] | + (“+” indicates a recoding efficiency greater than 40%) |  | 
C#CCOc1ccc2[nH]cc(C[C@H](N)C(=O)O)c2c1 [compound 415] | + (“+” indicates a recoding efficiency greater than 40%) |  | 
[N-]=[N+]=Nc1ccc2[nH]cc(C[C@H](N)C(=O)O)c2c1 [compound 416] | + (“+” indicates a recoding efficiency greater than 40%) |  | 
Nc1ccc2[nH]cc(C[C@H](N)C(=O)O)c2c1 [compound 417] | + (“+” indicates a recoding efficiency greater than 40%) |  | 
N[C@@H](Cc1c[nH]c2cccc(F)c12)C(=O)O [compound 418] |  | 82% | 
N[C@@H](Cc1ccc(OS(=O)(=O)O)cc1)C(=O)O [sTyr] |  |  | recoding efficiency [1]: 85%
